Laboratory results: ChEMBL document CHEMBL4196203, “BACE1 Inhibitory Meroterpenoids from Aspergillus terreus” (J Nat Prod, 2018)

target: Beta-secretase 1 (Homo sapiens, UniProt P56817); experiment: Inhibition of human BACE1 using MOCA-SEV-NL-DAEFR-DNP-RR as substrate measured after 2 hrs by FRET assay
Sequence (P56817 whole entry): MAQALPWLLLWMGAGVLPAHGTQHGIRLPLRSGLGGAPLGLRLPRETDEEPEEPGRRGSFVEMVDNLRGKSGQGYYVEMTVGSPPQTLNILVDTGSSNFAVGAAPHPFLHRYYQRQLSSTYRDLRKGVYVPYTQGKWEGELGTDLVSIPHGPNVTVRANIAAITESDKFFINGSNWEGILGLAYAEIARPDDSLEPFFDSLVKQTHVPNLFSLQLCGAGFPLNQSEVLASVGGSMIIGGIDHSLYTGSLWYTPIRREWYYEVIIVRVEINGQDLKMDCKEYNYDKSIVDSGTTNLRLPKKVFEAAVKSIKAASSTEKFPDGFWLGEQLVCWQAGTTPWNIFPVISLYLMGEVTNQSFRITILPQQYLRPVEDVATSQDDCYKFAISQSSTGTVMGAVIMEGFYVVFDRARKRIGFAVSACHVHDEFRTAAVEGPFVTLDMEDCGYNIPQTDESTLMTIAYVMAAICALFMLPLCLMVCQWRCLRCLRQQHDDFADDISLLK

IC50 [µM] | Compound
> 50 | C=C1C[C@H]2[C@]3(C)CCC(=O)C(C)(C)[C@H]3C(=O)[C@@H](O)[C@]2(C)[C@H]2C(=O)O[C@](C)(C(=O)OCC)C(=O)[C@]12C
> 50 | C=C1C[C@H]2[C@]3(C)CCC(=O)C(C)(C)[C@H]3C(=O)C[C@]2(C)[C@@H](C(=O)OC)[C@]1(C)C(=O)[C@](C)(O)C(=O)OC
31.7 | C=C1C[C@H]2[C@]3(C)CCC(=O)C(C)(C)[C@@H]3C(=O)[C@@H](O)[C@]2(C)[C@@H](C(=O)OC)[C@]1(C)C(=O)[C@](C)(O)C(=O)OC
> 50 | C=C1C[C@H]2[C@]3(C)CCC(=O)C(C)(C)[C@H]3C(=O)C[C@]2(C)[C@]2(C(=O)OC)C(=O)[C@H](C)OC(=O)[C@]12C
> 50 | C=C1[C@@H]2O[C@@]23[C@]2(C)CCC(=O)C(C)(C)C2=C(O)C(=O)[C@]3(C)[C@H]2C(=O)O[C@](C)(C(=O)OC)C(=O)[C@]12C
> 50 | C=C1C[C@H]2[C@]3(C)CCC(=O)C(C)(C)[C@H]3C(=O)[C@@H](O)[C@]2(C)[C@@H](C(=O)OC)[C@]1(C)C(=O)[C@](C)(O)C(=O)OC
> 50 | C=C1C[C@@H]2[C@](C)(C(=O)C(O)=C3C(C)(C)C(=O)CC[C@]32C)[C@H]2C(=O)O[C@](C)(C(=O)OC)C(=O)[C@]12C
5.85 | C=C1C[C@H]2[C@]3(C)CCC(=O)C(C)(C)[C@@H]3C(=O)[C@@H](O)[C@]2(C)[C@H]2C(=O)O[C@@H](C)C(=O)[C@]12C
> 50 | C=C1C[C@@H]2[C@](C)(C(=O)C(O)=C3C(C)(C)C(=O)CC[C@]32C)[C@@H](C(=O)OC)[C@]1(C)C(=O)[C@](C)(O)C(=O)OC
> 50 | C=C1C[C@H]2[C@]3(C)CCC(=O)C(C)(C)[C@H]3C(=O)[C@@H](O)[C@]2(C)[C@H]2C(=O)O[C@@H](C)C(=O)[C@]12C
> 50 | C=C1C[C@H]2[C@]3(C)CC[C@@H](O)C(C)(C)[C@H]3C(=O)[C@@H](O)[C@]2(C)[C@@H](C(=O)OC)[C@]1(C)C(=O)[C@](C)(O)C(=O)OC

Compound | IC50 [µM]
C=C1C[C@H]2[C@]3(C)CCC(=O)C(C)(C)[C@H]3C(=O)[C@@H](O)[C@]2(C)[C@H]2C(=O)O[C@](C)(C(=O)OC)C(=O)[C@]12C | > 50
C=C1C[C@H]2[C@]3(C)CCC(=O)C(C)(C)[C@H]3CC[C@]2(C)[C@]2(C(=O)OC)C(=O)[C@@](C)(O)C(=O)[C@]12C | > 50
C=C1C[C@@]2(O)[C@]3(C)CCC(=O)C(C)(C)C3=C(O)C(=O)[C@]2(C)[C@H]2C(=O)O[C@](C)(C(=O)OC)C(=O)[C@]12C | > 50
C=C1C[C@H]2[C@]3(C)CCC(=O)C(C)(C)[C@@H]3C(=O)[C@@H](O)[C@]2(C)[C@H]2C(=O)O[C@](C)(C(=O)OC)C(=O)[C@]12C | 3.32
C=C1C[C@H]2[C@]3(C)CCC(=O)C(C)(C)[C@H]3C(=O)[C@@H](O)[C@]2(C)[C@@H]2C(=O)O[C@](C)(C(=O)OC)C(=O)[C@]12C | > 50
